System: 610 metabolites from 63 biochemical pathways
Experiment: Targeted broad-spectrum plasma metabolomic analysis (LC-MS/MS), paired pre-infusion vs post-infusion (2-days and 6-weeks)
Format: in vivo, human
Settings: for Linear Ratio / VIP Score / Z Abs / Z Score: plasma
Protocol: Targeted, broad-spectrum, plasma metabolomic analysis of 610 metabolites from 63 biochemical pathways was performed by high performance liquid chromatography and tandem mass spectrometry (LC-MS/MS) on the samples collected from patients in Example 1. Venous blood was collected between the hours of 8 am and 5 pm, at least 3 hours after the last meal, into lithium-heparin vacutainer tubes (BD #367884). Plasma was separated by centrifugation at 900 g×10 minutes at room temperature within one hour of collection. The resulting fresh lithium-heparin plasma was transferred to labeled 1.2 ml or 2.0 ml externally threaded cryotubes with a minimum headspace air gap for storage at −80° C. for analysis. Samples were analyzed on an AB SCIEX QTRAP 5500 triple quadrupole mass spectrometer equipped with a Turbo V electrospray ionization (ESI) source, Shimadzu LC-20A UHPLC system, and a PAL CTC autosampler. Typically, 90 μl of plasma was thawed on ice and transferred to a 1.7 ml Eppendorf tube. Five (5.0) μl of a cocktail containing 25-35 commercial stable isotope internal standards, and 5.0 μl of 57 stable isotope internal standards that were custom-synthesized in E. coli NCM3722, Caenorhabditis elegans N2, and Komagataella phaffii (ATCC 76273; formerly known as Pichia pastoris) by metabolic labeling with 13C-glucose and 13C-bicarbonate, were added, mixed, and incubated for 10 min at 20° C. to permit small molecules and vitamins in the internal standards to associate with plasma binding proteins. Macromolecules (protein, DNA, RNA, glycans, etc.) were precipitated by extraction with 4 volumes (400 μl) of cold (−20° C.), acetonitrile:methanol (50:50) (LCMS grade, Cat #LC015-2.5 and GC230-4, Burdick & Jackson, Honeywell), vortexed vigorously, and incubated on crushed ice for 10 min, then removed by centrifugation at 16,000 g×10 min at 4° C. The supernatants containing the extracted metabolites and internal standards in the resulting 40:40:20 solvent mix of acetonitrile:methanol:water were transferred to labeled cryotubes and stored at −80° C. for LCMS/MS analysis.
LC-MS/MS analysis was performed by scheduled multiple reaction monitoring (sMRM) under Analyst v1.6.2 software control in both negative and positive mode with rapid polarity switching (50 ms). Nitrogen was used for curtain gas (set to 30), collision gas (set to high), ion source gas 1 and 2 (set to 35). The source temperature was 500° C. Spray voltage was set to −4500 V in negative mode and 5500 V in positive mode. The values for Q1 and Q3 mass-to-charge ratios (m/z), declustering potential (DP), entrance potential (EP), collision energy (CE), and collision cell exit potential (CXP) were determined and optimized for each MRM for each metabolite. Ten microliters of extract was injected by PAL CTC autosampler via a 10 μl stainless steel loop into a 250 mm×2.0 mm, 4 μm polymer based NH2 HPLC column (Asahipak NH2P-40 2E, Showa Denko America, Inc., NY) held at 25° C. for chromatographic separation. The mobile phase was solvent A: 95% water with 20 mM (NH4)2CO3 (Sigma, Fluka Cat #74415-250G-F), 5% acetonitrile, and 38 mM NH4OH (Sigma, Fluka Cat #17837-100ML), final pH 9.75; solvent B: 100% acetonitrile. Separation was achieved using the following gradient: 0-3.5 min: 95% B, 3.6-8 min: 85% B, 8.1-13 min: 75% B, 13.5-35 min: 0% B, 36-46 min: 95% B, 46.1 min: end. The flow rate was 200 μl/min. Pump pressures ranged from 920-2600 psi over the course of the gradient. All the samples were kept at 4° C. during analysis. The chromatographic peaks were identified using MultiQuant (v3.0, Sciex), confirmed by manual inspection, and the peak areas integrated. […]

[1] = 1-Carbon, Folate, Formate, Glycine, Serine Metabolism, 6-weeks
[2] = 1-Pyrroline-5-carboxylic acid, 6-weeks
[3] = 2-Hydroxyisocaproic acid, 6-weeks
[4] = 2-Hydroxyisovaleric acid, 6-weeks
[5] = 3-Hydroxy-cis-5-tetradecenoylcarnitine, 6-weeks
[6] = 4-Hydroxyphenyllactic acid, 6-weeks
[7] = Amino Acid Metabolism (not otherwise covered), 6-weeks
[8] = Amino-Sugar, Galactose, & Non-Glucose Metabolism, 6-weeks
[9] = Amino-Sugar, Galactose, & Non-Glucose, 2-days
[10] = Bioamines and Neurotransmitter Metabolism, 2-days

In the case of `Cc1ccc(C(=O)Nc2ccc(S(=O)(=O)O)c3cc(S(=O)(=O)O)cc(S(=O)(=O)O)c23)cc1NC(=O)c1cccc(NC(=O)Nc2cccc(C(=O)Nc3cc(C(=O)Nc4ccc(S(=O)(=O)O)c5cc(S(=O)(=O)O)cc(S(=O)(=O)O)c45)ccc3C)c2)c1` [Suramin, suramin], the Decreased [1] is reported as 0, the “Fold Enrichment (Obs/Exp)” value [1] is reported as 3.6 and the “Fraction of Impact (VIP Score) Explained (% of 94.6)” value (shortened to “Fraction of Impact … (% of 94.6)”) [1] is reported as 4%. For the same compound, the “Impact (Sum VIP Score)” value [1] was 4.0, the Increased [1] was 2 and the “Observed Hits in the Top 48 Metabolites” value [1] was 2. For the same compound, the “Linear Ratio” value (1-Methyladenine, 6-weeks) was 2.287, the “VIP Score” value (1-Methyladenine, 6-weeks) was 2.459 and the “Z Abs” value (1-Methyladenine, 6-weeks) was 2.259. For the same compound, the “Z Score” value (1-Methyladenine, 6-weeks) was 2.259, the “Linear Ratio” value [2] was 1.299 and the “VIP Score” value [2] was 2.358. For the same compound, the “Z Abs” value [2] was 1.922, the “Z Score” value [2] was 1.922 and the “Linear Ratio” value [3] was 1.306. The “VIP Score” value [3] was 1.622, the “Z Abs” value [3] was 0.997 and the “Z Score” value [3] was 0.997. The “Linear Ratio” value [4] was 1.234, the “VIP Score” value [4] was 1.988 and the “Z Abs” value [4] was 1.146. The “Z Score” value [4] was 1.146, the “Linear Ratio” value (2-Keto-L-gluconate, 6-weeks) was 1.239 and the “VIP Score” value (2-Keto-L-gluconate, 6-weeks) was 2.686. For the same compound, the “Z Abs” value (2-Keto-L-gluconate, 6-weeks) was 2.365, the “Z Score” value (2-Keto-L-gluconate, 6-weeks) was 2.365 and the “biochemical pathways changed by suramin” value (2-days after the infusion) was 28. The “Linear Ratio” value [5] was 0.734, the “VIP Score” value [5] was 1.612 and the “Z Abs” value [5] was 1.056. The “Z Score” value [5] was −1.056, the “Linear Ratio” value [6] was 1.294 and the “VIP Score” value [6] was 1.945. For the same compound, the “Z Abs” value [6] was 1.172, the “Z Score” value [6] was 1.172 and the “pathways changed at 2-days that remained changed” value (6-week time point) was 79%. The “metabolites significantly changed by suramin (total)” value (6-weeks) was 48, the “Linear Ratio” value (Alanine, 6-weeks) was 1.322 and the “VIP Score” value (Alanine, 6-weeks) was 2.456. The “Z Abs” value (Alanine, 6-weeks) was 1.687, the “Z Score” value (Alanine, 6-weeks) was 1.687 and the “Linear Ratio” value (Allantoin, 6-weeks) was 1.798. The “VIP Score” value (Allantoin, 6-weeks) was 1.882, the “Z Abs” value (Allantoin, 6-weeks) was 1.068 and the “Z Score” value (Allantoin, 6-weeks) was 1.068. For the same compound, the Decreased [7] was 0, the “Fold Enrichment (Obs/Exp)” value [7] was 4.5 and the “Fraction of Impact … (% of 94.6)” value [7] was 5%. For the same compound, the “Impact (Sum VIP Score)” value [7] was 4.3, the Increased [7] was 2 and the “Observed Hits in the Top 48 Metabolites” value [7] was 2. The Decreased (Amino Acid Metabolism, 2-days) was 0, the “Fold Enrichment (Obs/Exp)” value (Amino Acid Metabolism, 2-days) was 1.8 and the “Fraction of Impact (VIP Score) Explained (% of 119.7)” value (“Fraction of Impact … (% of 119.7)” for short) (Amino Acid Metabolism, 2-days) was 1%. For the same compound, the “Impact (Sum VIP Score)” value (Amino Acid Metabolism, 2-days) was 1.8, the Increased (Amino Acid Metabolism, 2-days) was 1 and the “Observed Hits in the Top 61 Metabolites” value (Amino Acid Metabolism, 2-days) was 1. The Decreased [8] was 0, the “Fold Enrichment (Obs/Exp)” value [8] was 1.8 and the “Fraction of Impact … (% of 94.6)” value [8] was 2%. For the same compound, the “Impact (Sum VIP Score)” value [8] was 1.9, the Increased [8] was 1 and the “Observed Hits in the Top 48 Metabolites” value [8] was 1. The Decreased [9] was 0, the “Fold Enrichment (Obs/Exp)” value [9] was 1.4 and the “Fraction of Impact … (% of 119.7)” value [9] was 1%. For the same compound, the “Impact (Sum VIP Score)” value [9] was 1.6, the Increased [9] was 1 and the “Observed Hits in the Top 61 Metabolites” value [9] was 1. The “Linear Ratio” value (Azelaic acid, 6-weeks) was 1.120, the “VIP Score” value (Azelaic acid, 6-weeks) was 2.151 and the “Z Abs” value (Azelaic acid, 6-weeks) was 2.558. For the same compound, the “Z Score” value (Azelaic acid, 6-weeks) was 2.558, the Decreased (Bile Acid Metabolism, 6-weeks) was 0 and the “Fold Enrichment (Obs/Exp)” value (Bile Acid Metabolism, 6-weeks) was 4.5. The “Fraction of Impact … (% of 94.6)” value (Bile Acid Metabolism, 6-weeks) was 6%, the “Impact (Sum VIP Score)” value (Bile Acid Metabolism, 6-weeks) was 5.7 and the Increased (Bile Acid Metabolism, 6-weeks) was 3. The “Observed Hits in the Top 48 Metabolites” value (Bile Acid Metabolism, 6-weeks) was 3, the Decreased (Bile Salt Metabolism, 2-days) was 0 and the “Fold Enrichment (Obs/Exp)” value (Bile Salt Metabolism, 2-days) was 4.7. For the same compound, the “Fraction of Impact … (% of 119.7)” value (Bile Salt Metabolism, 2-days) was 10%, the “Impact (Sum VIP Score)” value (Bile Salt Metabolism, 2-days) was 11.9 and the Increased (Bile Salt Metabolism, 2-days) was 4. The “Observed Hits in the Top 61 Metabolites” value (Bile Salt Metabolism, 2-days) was 4, the Decreased [10] was 2 and the “Fold Enrichment (Obs/Exp)” value [10] was 1.6. For the same compound, the “Fraction of Impact … (% of 119.7)” value [10] was 3%, the “Impact (Sum VIP Score)” value [10] was 3.3 and the Increased [10] was 0. The “Observed Hits in the Top 61 Metabolites” value [10] was 2 and the Decreased (Branch Chain Amino Acid Metabolism, 2-days) was 0.

Reference: patent publication US20190358181A1, “METHODS FOR AUTISM SPECTRUM DISORDER PHARMACOTHERAPY” (priority 2017, published 2019)
